Source: patent US11185077B2, “Attractants for rodents” (priority 2016, dated 2021)

Test system: brown rats, Rattus norvegicus
Experiment: Laboratory arena with two trap boxes: behavioral responses of rats (first entry, time spent)
Assay type: in vivo
Description: A laboratory experimental apparatus was constructed to test the behavioral responses of rats to the compositions described herein. The experimental design is depicted in FIG. 1 and includes a circular galvanized steel arena (200 cm×60 cm) illuminated from above by a 7.5-W red bulb (Halco Lighting Technologies, Norcross, Ga. 30071, USA) to facilitate observations of the position of the rat within the steel arena. Two metal trap boxes (3a, 3b) (each 25 cm×20 cm×12 cm; T. Eaton & Co. Inc., Twinsburg, Ohio 44087, USA) were placed in opposite quadrants of the arena (1) 10 cm from the wall to serve as harborage. Each box (3a, 3b) was fitted with a Petri dish (3 cm) containing a Whatman #1 filter paper disk (25 mm diam; Sigma-Aldrich Canada Co. Oakville, On L6H 6J8) treated with a randomly assigned treatment or control stimulus. Individual rats were released from a gated mesh and sheet metal box (2) (25 cm×15 cm×15 cm) positioned equidistant to each of the two metal trap boxes (3a, 3b).
For each experimental replicate, a single rat was removed from its “home” cage, and placed into the gated mesh- and sheet-metal container (2). After a 10-min acclimation period, the gate was raised, allowing the rat to leave the box (2) on its own accord and to explore the arena (1) and the trap boxes (3a, 3b).
A rat was classed a responder if it entered a trap box (3a, 3b). For each responding rat, two criteria were recorded and analyzed: 1) the trap box (3a, 3b) it entered first (“first entry”), and 2) the time it spent in the arena quadrants associated with a trap box (“time spent”). The latter data were obtained by recording the rat's position in any one of the four arena quadrants at each of 30 1-min intervals. Following each replicate, the arena and trap boxes were cleaned with a Percept™ disinfectant detergent (Virox Technologies Inc. Mississaugua ON L5N 5M4, Canada) and were wiped with a pet urine odor remover (Nature's Miracle®, Spectrum Brands Inc., Blacksburg, Va. 24060-6671, USA).
First-choice data and the time spent in a trap box quadrant were analyzed using a χ^2 test with Yates' correction for continuity (α=0.05) and the Student's t-test (α=0.05), respectively.
In Experiments 1 and 2, the laboratory experimental design of FIG. 1 was used to evaluate the responses of male and female rats to synthetic androstenone. For Experiments 1 and 2, the treatment stimulus consisted of filter paper sprayed with 2 ml of an aqueous microemulsion containing 4 μg of synthetic androstenone and a control stimulus which consisted of untreated filter paper. The treatment stimulus and control stimulus were placed in the trap boxes (3a, 3b). Experiment 1 tested the response of male rats and Experiment 2 tested the response of female rats.
In Experiments 3 and 4, the laboratory experimental design of FIG. 1 was used to evaluate the responses of male and female rats to synthetic progesterone and estrogen. For Experiments 3 and 4, the treatment stimulus consisted of filter paper impregnated with a 4-μg blend of the synthetic hormones progesterone and estrogen formulated in 50 μl of ether at a ratio of either 100:1 (Experiment 3) or 1000:1 (Experiment 4). The control stimulus in each of Experiments 3 and 4 consisted of filter paper impregnated with 50 μl of ether.
Experiment 14 used the laboratory experimental apparatus of FIG. 1 to test choices of female rats between a treatment stimulus consisting of filter paper treated with 150 ng of synthetic testosterone formulated in 50 μl of ether and a control stimulus consisting of filter paper treated with 50 μl of ether.

[1] = Experiment 14, female rats, 150 ng synthetic testosterone
[2] = Experiment 1, male rats, 4 μg synthetic androstenone
[3] = Experiment 2, female rats, 4 μg synthetic androstenone

SMILES | first entry into baited trap box vs control trap box [1] | time spent in arena quadrant of baited trap box vs opposite control quadrant [1] | attractant effect on female rats (Experiment 14, female rats, 150 ng synthetic testosterone in 50 μl ether vs ether) | first entry into treatment trap box vs control trap box [2] | time spent in quadrants associated with stimulus vs opposite control quadrants [2] | attractive effect on male rats (Experiment 1, male rats, 4 μg synthetic androstenone on filter paper vs untreated filter paper) | first entry into treatment trap box vs control trap box [3] | time spent in quadrants associated with treatment stimulus vs opposite control quadrants [3] | attractive effect on female rats (Experiment 2, female rats, 4 μg synthetic androstenone on filter paper vs untreated filter paper)
C[C@]12CC[C@H]3[C@@H](CCC4=CC(=O)CC[C@@]43C)[C@@H]1CC[C@@H]2O [testosterone, (8R,9S,10R,13S,14S,17S)-17-hydroxy-10,13-dimethyl-1,2,6,7,8,9,11,12,14,15,16,17-dodecahydrocyclopenta[a]phenanthren-3-one, reference compound] | significantly more often | significantly more time | very positive attractant effect | – | – | – | – | – | –
C[C@]12CCC(=O)C[C@@H]1CC[C@@H]1[C@@H]2CC[C@]2(C)C=CC[C@@H]12 [androstenone, 5α-androst-16-en-3-one] | – | – | – | as often as | significantly less time | no observed attractive effect | significantly more often | significantly more time | very attractive effect
